Test results reported in patent US8993606B2, “Oral formulations for treating metal overload” (FerroKin BioSciences, Inc., priority 2011, dated 2015).
Read-outs that look alike come from different tables or passages of the source.

Test: Example 4: seven-day dosing in iron-overloaded human subjects (PK, tolerability)
Format: in vivo
Conditions: for CL renal / half-life / Cmax / Tmax / AUC(0-t) / Vd/F: human; for CL renal: plasma and urine; for half-life / Cmax / Tmax / AUC(0-t) / Vd/F: plasma; for AUC(0-t): read-out: AUC(0-24); for Vd/F: read-out: Vz/F
Protocol: A dose-escalation study to assess the safety, tolerability, pharmacokinetics and pharmacodynamics of Compound 1, which correspond to a capsule formulation of (S)-3′-(OH)-DADFT-PE was conducted in 16 adult patients with iron overloaded consequent to transfusions. […] Compound 1 was supplied as capsules containing 50 mg, 100 mg, or 250 mg. The capsules were manufactured in accordance with Annex 13 and the principle of cGMP at Aptuit (10245 Hickman Mills Drive, Kansas City, Mo. 64137).
Patients 18 years or older with documented transfusional iron overload requiring chronic treatment with deferiprone, deferasirox or deferoxamine were eligible. Causes of iron overload included β-thalassemia major, α-thalassemia or α-thalassemia hydrops)(α°α°, sickle cell disease, and congenital dyserythropoietic anemia. Each of the four cohorts contained four patients. For the purposes of this study, transfusion dependence was defined as requiring eight or more transfusions per year. The iron burden inclusion criteria were defined as: (i) liver iron concentration greater than 2 mg/g (dry weight, liver) as determined by R2 magnetic resonance imaging; (ii) a cardiac magnetic resonance imaging T2* greater than 12 ms; and (iii) serum ferritin in excess of 600 ng/mL. Eligible patients who consented to participation in the study discontinued their regular chelation therapy for up to 5 days during a wash-out period prior to their first dose of Compound 1. Patients received Compound 1 in capsules taken orally in a fasted state.
In this study, a standard pharmacokinetic protocol of plasma sampling was performed throughout the 7 days of dosing and continuing for 3 days after the last dose on day 7. Actual blood sampling and urine collection times were used in all pharmacokinetic analyses. […] A formally validated bioanalytical method for quantifying total Compound 1 in human plasma and urine was developed. The drug was extracted from plasma using solid phase extraction and analyzed using high performance liquid chromatography with tandem mass spectrometric determination, and d3-[Compound 1] as an internal standard. The method was used to measure drug (MW 400) over the range of 5 to 2000 ng/mL (12.5-5000 nM) and at sample dilutions of 20- to 50-fold.
Pharmacokinetic parameters for Compound 1 were estimated using non-compartmental analysis. Only plasma and urine concentrations greater than the lower limits of quantitation (LOQ, 5 ng/mL in plasma, 5 ng/mL in urine) for the assays were used in the pharmacokinetic analysis.
Plasma concentrations, blood sampling times, urine concentrations, urine volumes, and the amount excreted in each interval, and pharmacokinetic parameters were listed by dose group and patient. Plasma concentrations and pharmacokinetic parameters were summarized by dose group using descriptive statistics: linearity with respect to Cmax and AUC(0-24) was assessed using the power model, i.e. P=a×Doseb, where P represents the parameter and a and b are constants. A log-log plot of P versus Dose is linear and a value of b of ≈1 indicates linearity. The equation was fitted to the individual patients' data using non-linear least squares regression. Parameters were compared among doses using descriptive statistics. Due to the small numbers of patients per panel, no formal statistical analyses were done.

COCCOCCOCCOc1cccc(C2=N[C@@](C)(C(=O)O)CS2)c1O [Compound 1, (S)-4,5-Dihydro-2-[2-hydroxy-3-(3,6,9-trioxadecyloxy)phenyl]-4-methyl-4-thiazolecarboxylate magnesium hydroxide]
CL/F (3 mg/kg daily 7 days oral): 162 ± 85 mL/min | CL/F (8 mg/kg daily 7 days oral): 225 ± 142 mL/min | CL/F (16 mg/kg daily 7 days oral): 206 ± 78.4 mL/min | CL/F (32 mg/kg daily 7 days oral): 172 ± 60.1 mL/min | serious adverse events associated with the drug (3-32 mg/kg daily 7 days): no serious adverse events | dose proportionality of plasma concentrations (all four doses 3-32 mg/kg): dose-proportional, linear pharmacokinetics | tolerability (daily for 7 days at doses up to 32 mg/kg): well tolerated at all dose levels | CL renal (3 mg/kg daily 7 days oral): 75.2 ± 46.8 mL/min | CL renal (8 mg/kg daily 7 days oral): 105 ± 62.9 mL/min | CL renal (16 mg/kg daily 7 days oral): 83.2 ± 36.5 mL/min | CL renal (32 mg/kg daily 7 days oral): 73.6 ± 37.8 mL/min | half-life (oral, 40 mg/kg, 5th cohort of four patients, read-out: Mean half life (t½) (converted)): 26.6 h | half-life (oral, across doses 3-32 mg/kg, read-out: t½ (converted)): 19.2 h | Cmax (3 mg/kg daily 7 days oral): 5910 ± 2300 ng/mL | Tmax (3 mg/kg daily 7 days oral): 1.31 h | AUC(0-t) (3 mg/kg daily 7 days oral): 19500 ± 11300 ng·h/mL | Vd/F (3 mg/kg daily 7 days oral): 185 ± 84.1 L | half-life (3 mg/kg daily 7 days oral, read-out: t½ (converted)): 16.2 ± 8.32 h | Cmax (8 mg/kg daily 7 days oral): 15000 ± 4440 ng/mL | Tmax (8 mg/kg daily 7 days oral): 1.18 h | AUC(0-t) (8 mg/kg daily 7 days oral): 44900 ± 30800 ng·h/mL | Vd/F (8 mg/kg daily 7 days oral): 311 ± 137 L | half-life (8 mg/kg daily 7 days oral, read-out: t½ (converted)): 20.9 ± 11.3 h | Cmax (16 mg/kg daily 7 days oral): 38200 ng/mL | Tmax (16 mg/kg daily 7 days oral): 1 h | AUC(0-t) (16 mg/kg daily 7 days oral): 92300 ± 36600 ng·h/mL | Vd/F (16 mg/kg daily 7 days oral): 339 ± 166 L | half-life (16 mg/kg daily 7 days oral, read-out: t½ (converted)): 21.3 ± 11.8 h | Cmax (32 mg/kg daily 7 days oral): 60200 ± 27500 ng/mL | Tmax (32 mg/kg daily 7 days oral): 1.49 h | AUC(0-t) (32 mg/kg daily 7 days oral): 158000 ± 43500 ng·h/mL | Vd/F (32 mg/kg daily 7 days oral): 214 ± 2.94 L | half-life (32 mg/kg daily 7 days oral, read-out: t½ (converted)): 18.7 ± 4.48 h
